Assay results as given in PubChem BioAssay (NCI).
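Dose response: 5 concentrations. Exposure: 48 h. Format: 96-well plates. Endpoint: linear interpolation; highest concentration if not reached. At the TGI there is no net growth.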

Legend:
Experiment in all cases: NCI anticancer screen, dose series, 48 h
[1] = tested on: SK-MEL-28 melanoma
[2] = tested on: ACHN renal
[3] = tested on: UACC-257 melanoma
[4] = tested on: MCF7 breast
[5] = tested on: HL-60(TB) leukemia
[6] = tested on: UACC-62 melanoma
[7] = tested on: RPMI-8226 leukemia
[8] = tested on: IGROV1 ovarian
[9] = tested on: COLO 205 colon
[10] = tested on: SNB-19 CNS
[11] = tested on: OVCAR-8 ovarian
[12] = tested on: SK-OV-3 ovarian
[13] = tested on: MDA-N
[14] = tested on: MDA-MB-231 breast
[15] = tested on: M14 melanoma
[16] = tested on: NCI-H23 lung
[17] = tested on: SF-268 CNS
[18] = tested on: CAKI-1 renal
[19] = tested on: HCT-15 colon
[20] = tested on: UO-31 renal
[21] = tested on: KM12 colon
[22] = tested on: MOLT-4 leukemia
[23] = tested on: U251 CNS
[24] = tested on: SK-MEL-2 melanoma
[25] = tested on: RXF 393 renal
[26] = tested on: DU-145 prostate
[27] = tested on: CCRF-CEM leukemia
[28] = tested on: SR leukemia
[29] = tested on: SF-539 CNS
[30] = tested on: PC-3 prostate
[31] = tested on: OVCAR-5 ovarian
[32] = tested on: NCI-H460 lung
[33] = tested on: SW-620 colon
[34] = tested on: HCC-2998 colon
[35] = tested on: HOP-92 NSCLC
[36] = tested on: OVCAR-4 ovarian
[37] = tested on: HT29 colon
[38] = tested on: NCI/ADR-RES ovarian
[39] = tested on: SK-MEL-5 melanoma
[40] = tested on: K-562 leukemia
[41] = tested on: LOX IMVI melanoma
[42] = tested on: A549 NSCLC
[43] = tested on: HS 578T breast
[44] = tested on: T-47D breast
[45] = tested on: A498 renal
[46] = tested on: HOP-62 NSCLC
[47] = tested on: OVCAR-3 ovarian
[48] = tested on: TK-10 renal
[49] = tested on: MDA-MB-435
[50] = tested on: NCI-H226 lung
[51] = tested on: SF-295 CNS
[52] = tested on: EKVX NSCLC
[53] = tested on: SNB-75 CNS

Measured: TGI

CCOC(=O)c1csc(NC(=O)CN(C)C)n1
> 100 µM: all assays above
